Assay results: patent US6972287B1, “Method of inhibiting amyloid protein aggregation and imaging amyloid deposits” (Pfizer Inc., priority 1999, dated 2005)
Where “and” joins values, the source holds several entries; their conditions need not be identical. Equal values may be shown once. Where a name gives a salt, the structure may show the parent alone.

How the values were obtained:
Assay type in all cases: biochemical
[1] = target: T1, Aβ (1-40) peptide (Homo sapiens, UniProt P05067); experiment: BAPA (Beta-Amyloid Peptide Aggregation, pH 6.0, filtration); conditions: Aβ (1-40) 33 μM, pH 6.0, 2 to 4 hours at room temperature; replicate values; letter = synthetic lot
T1 construct: 10 μL 0.5 mg/mL Aβ (1-40) peptide in 20% HFIP
T1 sequence (P05067 672-711 limits assumed): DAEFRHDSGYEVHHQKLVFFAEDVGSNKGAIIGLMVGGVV
Experimental: Each 96-well plate can therefore accommodate 11 samples+1 Congo Red control (0.039-5 μM final in 2-fold steps). • 4) Seal the plate with aluminum film and incubate for 10 minutes on ice. • 5) Raise the temperature to 37° C. and incubate for 3 to 5 hours (depends on the lot of the peptide). • 6) Remove the aluminum film and add 250 μL/well of 5 μM thioflavin T (ThT) [T-3516, Sigma-Aldrich] in 50 mM glycine-NaOH, pH 8.5. […] The purpose of this assays is to provide a higher volume method of assaying the amount of beta amyloid aggregation using an endpoint assay based on filtration. In this assay, hexafluoroisopropanol (HFIP) is used to break down the initial amyloid peptide to a monomer state and use a concentration of 33 μM which is high enough so that aggregation will occur at pH 6.0 in several hours. Methods: […] Then, we incubate for 2 to 4 hours at room temperature. […] We wash the filter plate with 100 μL of the same phosphate buffer. Aggregation was detected on a Microbeta counter after impregnating the filters with Meltilex (1450-441) and is corrected for background.

[2] = target: T2, Aβ(1-40) (Homo sapiens, UniProt P05067); experiment: BASSR (Beta-Amyloid Self-Seeding Radioassay), inhibitors of self-seeded amyloid fibril growth; conditions: 30 μM soluble Aβ(1-40) + 125I-labeled Aβ(1-40), 37° C., 3 to 5 hours; replicate values; letter = synthetic lot; ppt = precipitate; V-shaped = inhibition followed by precipitation
T2 construct: […]; purchased Bachem, Torrance, Calif
T2 sequence (P05067 672-711 limits assumed): as above
Experimental: BASSR (Beta-Amyloid Self-Seeding Radioassay)
(§1) An assay for inhibitors of self-seeded amyloid fibril growth
Assay Buffer—50 mM sodium phosphate, pH 7.5, 100 mM NaCl, 0.02% NaN3, 1 M urea (filter and store at 4° C.).
(§2) Typically, the solution should be stored until no lag phase is seen in the assay.
^125I-labeled Aβ(1-40)—150K-350K cpm/μL in 100% acetonitrile—0.1% trifluoroacetic acid (TFA)—1% β-mercaptoethanol (aliquots stored at −20° C.). ^125I-labeled Aβ(1-40) can be made in accordance with the procedure set forth by H. LeVine, III in Neurobiol. Aging, 16, 755, (1995), which is hereby incorporated by reference, or this reagent may be purchased from Amersham, Arlington Heights, Ill.
The following are the amounts of the components of the reaction mixture sufficient for 50 assay wells:
• 1) Prepare reaction mixture above by mixing components and storing on ice. • 2) Pipet 14.5 μL of reaction mixture into each of 50 wells on a polypropylene U-bottom 96-well microtiter plate on ice. (Costar 3794). • 3) Add 1.7 μL of diluted compound to be tested to each well in a column of eight, including solvent control. Serial 3-fold dilutions from 1 mM (100 μM final) in assay buffer−urea=7 dilutions+zero. Each 96-well plate can therefore accommodate 11 samples+1 Congo Red control (0.039-5 μM final in 2-fold steps). • 4) Seal the plate with aluminum film (Beckman 538619) and incubate for 10 minutes on ice. • 5) Raise the temperature to 37° C. and incubate for 3 to 5 hours (depending on the lot of the peptide). • 6) Remove the aluminum film and add 200 μL/well of ice cold assay buffer with urea, collecting the radiolabeled fibrils by vacuum filtration through 0.2 μm pore size GVWP filters in 96-well plates (Millipore MAGV N22, Bedford, Mass.). Determine the radioactivity of the filters using standard methods well-known to those skilled in the art. BASST (Beta-Amyloid Self-Seeding, Thioflavin T)

[3] = target: T2, Aβ(1-40); experiment: BASST (Beta-Amyloid Self-Seeding, Thioflavin T), inhibitors of self-seeded amyloid fibril growth
Experimental: as §1
Assay Buffer—50 mM sodium phosphate, pH 7.5, 100 mM NaCl, 0.02% NaN3, 1 M urea (filter and store at 4° C.)
as §2
The following are the amounts of the components of the reaction mixture that result in each of the 50 assay wells:
• 1) Prepare the reaction mix above by mixing the components and storing on ice. • 2) Pipet 14.5 μL of reaction mixture into each of 50 wells of a polystyrene U-bottom 96-well microtiter plate (Corning 25881-96) on ice. • 3) Add 1.7 μL of diluted compound to be tested to each well in a column of eight, including solvent control. Serial 3-fold dilutions from 1 mM (100 μM final) in assay buffer−urea=7 dilutions+zero. Each 96-well plate can therefore accommodate 11 samples+1 Congo Red control (0.039-5 μM final in 2-fold steps). • 4) Seal the plate with aluminum film and incubate for 10 minutes on ice. • 5) Raise the temperature to 37° C. and incubate for 3 to 5 hours (depends on the lot of the peptide). • 6) Remove the aluminum film and add 250 μL/well of 5 μM thioflavin T (ThT) [T-3516, Sigma-Aldrich] in 50 mM glycine-NaOH, pH 8.5. Read fluorescence on a plate reader (ex=440 nm/20 nm; em=485 nm/20 nm) within 5 minutes. BAPA (Beta-Amyloid Peptide Aggregation)

[4] = target: T3, Aβ (1-42) (Homo sapiens, UniProt P05067); experiment: BATYM assay (Aβ (1-42) aggregation, Thioflavin T fluorescence); conditions: Aβ 1-42 final concentration 100 μM, 37° C., 1 day, letter = synthetic lot
T3 construct: Required Aβ (1-42) (California Peptide) was dried from its hexafluoroisopropanol (HFIP) stock solution; purchased California Peptide
T3 sequence (P05067 672-713 limits assumed): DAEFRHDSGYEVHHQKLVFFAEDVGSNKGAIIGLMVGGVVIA
Experimental: Required Aβ (1-42) (California Peptide) was dried from its hexafluoroisopropanol (HFIP) stock solution. The Aβ (1-42) was dissolved in dimethylsulfoxide (DMSO) and then mixed with phosphate buffered saline (PBS) (pH 7.4). The mixed Aβ (1-42) solution was filtered with a 0.2 μm Omnipore membrane syringe filter Millipore, Bedford, Mass.). The compound to be tested in DMSO (50 times concentrate) was put into each well (0.5 μL/well) of a 96-well plate. The Aβ (1-42) solution was added into each well (24.5 μL/well). The plate was centrifuged at 1,000 g for 5 minutes and incubated at 37° C. for 1 day (Aβ 1-42; final concentration 100 μM).
After incubation Thioflavin T (ThT) (30 μM) solution in glycine-NaOH buffer (pH 8.5, 50 mM) was added into each well (250 μL/well), fluorescence was measured (ex=440/20 nm, em=485/20 nm) using a fluorescence plate reader. The inhibitory activity was calculated as the reduction of fluorescence with the following formula: Inhibition (%)={(F(Aβ)−F(Aβ+compound)}/{F(Aβ)−[…]}×100
The IC50s were calculated by a curve fitting program using the following equation. The data were obtained from two different experiments in triplicate.
x=Concentration of tested compound (M),

[5] = 30 μM soluble Aβ(1-40), 37° C., 3 to 5 hours, thioflavin T fluorescence, replicate values, letter = synthetic lot, read-out: BASST (IC50 = μM)

| Compound | IC50 [1] | IC50 [2] | IC50 [3, 5] | IC50 [4] | IC50 ([3]; BASST (IC50 = μM)) | IC50 ([3]; read-out: BASST (IC50 = μM)) |
| --- | --- | --- | --- | --- | --- | --- |
| CCN(CC)c1ccc(CCc2ccc(Nc3ccccc3C(=O)O)cc2)cc1 [Example 26, 2-{4-[2-(4-Diethylaminophenyl)ethyl]phenylamino}benzoic acid monohydrochloride monohydrate] | 57 µM | – | – | > 100 µM | 1 µM | – |
| CCCN(CCC)c1cccc(CCCc2ccc(Nc3ccccc3C(=O)O)cc2)c1 [Example 27, 2-{4-[3-(3-Dipropylaminophenyl)propyl]phenylamino}benzoic acid] | 74 µM | > 100 µM | 3 µM | 19.8 µM | – | – |
| CCN(CC)c1cccc(CCCc2ccc(Nc3ccccc3C(=O)O)cc2)c1 [Example 32, 2-{4-[3-(3-Diethylaminophenyl)propyl]phenylamino}benzoic acid] | 96 µM | > 100 µM | 1 µM | 29.2 µM | – | – |
| O=C(O)c1ccccc1Nc1ccc(CCc2ccc(Cl)c(Cl)c2)cc1 [Example 118, 2-{4-[2-(3,4-Dichloro-phenyl)-ethyl]-phenylamino}-benzoic acid monopotassium] | > 60 µM | > 100 µM | 6 µM | – | – | – |
| O=C(O)c1ccccc1Nc1ccc(CCc2ccc(Cl)c(Cl)c2)cc1 [Example 119, 2-{4-[2-(3,4-Dichloro-phenyl)-ethyl]-phenylamino}-benzoic acid calcium salt (1:1)] | > 60 µM | > 100 µM | – | – | – | 3 µM |

The next lines start with results.

| IC50 [1] | IC50 [2] | IC50 [3, 5] | IC50 [4] | Compound | IC50 ([3]; BASST (IC50 = μM)) | IC50 ([3]; read-out: BASST (IC50 = μM)) |
| --- | --- | --- | --- | --- | --- | --- |
| 24 µM | 3 µM | 9 µM | > 100 µM | Nc1ccc(CCCc2ccc(Nc3ccccc3C(=O)O)cc2)cc1 [Example 22, 2-{4-[3-(4-Aminophenyl)propyl]phenylamino}benzoic acid] | – | – |
| 38 µM | 30 µM and 20 µM | 4 µM and 2 µM | 75.3 µM | CCN(CC)c1ccc(CCCc2ccc(N(CC)c3ccccc3C(=O)O)cc2)cc1 [Example 30, 2-(N-{4-[3-(4-Diethylaminophenyl)propyl]phenyl}-N-ethylamino)benzoic acid] | – | – |
| 48 µM | 45 µM | 3 µM | 45 µM | CN(C)c1ccc(CCCc2ccc(Nc3ccccc3C(=O)O)cc2)cc1 [Example 34, 2-{4-[3-(4-Dimethylaminophenyl)propyl]phenylamino}benzoic acid] | – | – |
| 63 µM | > 100 µM | 0.3 µM | 24.2 µM | CCCN(CCC)c1ccc(CCCc2ccc(Nc3ccccc3C(=O)O)cc2)cc1 [Example 43, 2-{4-[3-(4-Dipropylaminophenyl)propyl]phenylamino}benzoic acid] | – | – |
| 13 µM | – | – | 12 µM | Cc1ccc(CCc2ccc(Nc3ccc([N+](=O)[O-])cc3C(=O)O)cc2)cc1C [Example 61, 2-{4-[2-(3,4-Dimethyl-phenyl)-ethyl]-phenylamino}-5-nitro-benzoic acid] | – | – |
